# Source: publication PMC12295086, “CtGH76, a Glycoside Hydrolase 76 from Chaetomium thermophilum, with Elongated Glycan-Binding Canyon” (International Journal of Molecular Sciences, 2025)
# Biological target: T1, CtGH76 (Thermochaetoides thermophila, UniProt G0S5Y9)
# T1 construct: gene CTHT_0025410; M1-M50 omitted (precursor 439 aa, predicted signal peptide M1-V60); N-terminal His10-tag removed with TEV; pET28a, E. coli SHuffle T7 Express; one molecule per asymmetric unit
# Experiment: X-ray crystal structure, crystal soaking
# Format: binding
# Conditions: soaked with mannose; subsites −4, −2 and +3
# T1 sequence (G0S5Y9 entry or part of it): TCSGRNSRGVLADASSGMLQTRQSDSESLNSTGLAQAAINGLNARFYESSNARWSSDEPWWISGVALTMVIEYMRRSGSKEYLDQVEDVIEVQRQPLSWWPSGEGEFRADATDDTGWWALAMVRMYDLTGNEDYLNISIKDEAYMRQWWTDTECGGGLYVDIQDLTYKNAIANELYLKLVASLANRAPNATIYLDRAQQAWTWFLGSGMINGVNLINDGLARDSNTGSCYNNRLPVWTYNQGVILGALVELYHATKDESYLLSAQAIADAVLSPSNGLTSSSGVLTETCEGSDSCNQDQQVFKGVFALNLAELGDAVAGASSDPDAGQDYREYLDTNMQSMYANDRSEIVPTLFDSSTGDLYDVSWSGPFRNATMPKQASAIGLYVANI
structure (smiles),measurement,value
OC[C@H]1OC(O)[C@@H](O)[C@@H](O)[C@@H]1O (stereo partly shown) [mannose],"X-ray crystal structure, crystal soaking",Soaking with mannose in CtGH76 identified potential sugar-binding subsites analogous to CtDfg5
